Reference: US8394814B2, “Method of purifying crude noscapine” (priority 2008, dated 2013)
Where two headings read alike, the source gives them in different places.

Assays:
[1] = format: physicochemical; settings: for Solubility: neutral pH
Description: To determine the solubility of noscapine in a variety of different solvents at neutral pH, the following experiment was conducted. Noscapine solubility was determined at ambient temperature (22° C.-23° C.) and at 50° C. by dissolving noscapine and noting the amount dissolved prior to saturation for the following solvents: acetone, acetonitrile, ethanol, isopropanol, methanol, pentanol, toluene, and water.

[2] = format: physicochemical; settings: for Solubility: room temperature; for Reduction of the solubility of noscapine by adding an equal amount of water: Table 1 compared with Table 2
Description: Noscapine solubility was also determined at room temperature for the following solvent mixtures, mixed in a roughly 1:1 ratio by weight: acetone:water, acetonitrile:water, chloroform:ethanol, toluene:ethanol. Solubilities were determined using methods similar to those described above, and the measured solubilities are summarized in Table 2.

[3] = format: physicochemical
Description: To characterize the solubility of noscapine in acetonitrile/water systems, the following experiment was conducted. […] The results of the solubility measurements are summarized in Table 3 and are summarized in a graph in FIG. 8.

Structure (SMILES): COc1ccc2c(c1OC)C(=O)O[C@@H]2[C@H]1c2c(cc3c(c2OC)OCO3)CCN1C [noscapine]
- Solubility ([1]; Acetone, 23° C.): 68.56 mg of noscapine/g of solvent
- Solubility ([1]; Acetone, 50° C.): 145.98 mg of noscapine/g of solvent
- Solubility ([1]; Acetonitrile, 23° C.): 52.33 mg of noscapine/g of solvent
- Solubility ([1]; Acetonitrile, 50° C.): 151.21 mg of noscapine/g of solvent
- Solubility ([1]; Chloroform, 23° C.): 504.11 mg of noscapine/g of solvent
- Solubility ([1]; Ethanol, 50° C.): 5.90 mg of noscapine/g of solvent
- Solubility ([1]; Isopropanol, 50° C.): 12.99 mg of noscapine/g of solvent
- Solubility ([1]; Methanol, 50° C.): 1.81 mg of noscapine/g of solvent
- Solubility ([1]; Pentanol, 50° C.): 12.29 mg of noscapine/g of solvent
- Solubility ([1]; Toluene, 23° C.): 40.65 mg of noscapine/g of solvent
- Solubility ([1]; Toluene, 50° C.): 59.99 mg of noscapine/g of solvent
- Solubility ([1]; Water, 50° C.): 0.82 mg of noscapine/g of solvent
- Solubility in words ([1]; chloroform): highly soluble
- Solubility in words ([1]; water): nearly insoluble
- Solubility ([2]; Acetone 49.4% / Water 50.6% by weight): 3.21 mg noscapine/g of solvent
- Solubility ([2]; Acetonitrile 48.6% / Water 51.4% by weight): 1.06 mg noscapine/g of solvent
- Solubility ([2]; Chloroform 50.0% / Ethanol 50.0% by weight): 73.34 mg noscapine/g of solvent
- Solubility ([2]; Toluene 51.0% / Ethanol 49.0% by weight): 37.21 mg noscapine/g of solvent
- Reduction of the solubility of noscapine by adding an equal amount of water ([2]; second solvent of 'acetone and water' as printed): about 98%
- Reduction of the solubility of noscapine by adding an equal amount of water ([2]; solvent acetone): about 95%
- Solubility ([3]; 0% acetonitrile by weight in water, 50° C.): 0.2 mg noscapine per gram of solve
- Solubility ([3]; 0% acetonitrile by weight in water, 70° C.): 0.2 mg noscapine per gram of solve
- Solubility ([3]; 20% acetonitrile by weight in water, 50° C.): 0.8 mg noscapine per gram of solve
- Solubility ([3]; 20% acetonitrile by weight in water, 70° C.): 1.4 mg noscapine per gram of solve
- Solubility ([3]; 40% acetonitrile by weight in water, 50° C.): 8.1 mg noscapine per gram of solve
- Solubility ([3]; 40% acetonitrile by weight in water, 70° C.): 6.7 mg noscapine per gram of solve
- Solubility ([3]; 60% acetonitrile by weight in water, 50° C.): 32.6 mg noscapine per gram of solve
- Solubility ([3]; 60% acetonitrile by weight in water, 70° C.): 46.3 mg noscapine per gram of solve
- Solubility ([3]; 80% acetonitrile by weight in water, 50° C.): 82.8 mg noscapine per gram of solve
- Solubility ([3]; 80% acetonitrile by weight in water, 70° C.): 181.9 mg noscapine per gram of solve
- Solubility ([3]; 100% acetonitrile by weight, 50° C.): 131.0 mg noscapine per gram of solve
- Solubility ([3]; 100% acetonitrile by weight, 70° C.): 226.5 mg noscapine per gram of solve
- Change of solubility in acetonitrile with temperature ([3]; acetonitrile, temperature increased from 22° C. to 50° C.): more than doubles
- Increase of solubility in the acetonitrile/water mixture ([3]; between 0° C. and 70° C., acetonitrile concentrations of about 50% or above): up to 10 fold
- Ratio of the solubility in pure acetonitrile to the solubility in pure water ([3]; solvent temperature 0° C.): about 78
- Ratio of the solubility in pure acetonitrile to the solubility in pure water ([3]; solvent temperature 70° C.): about 647
